This is an account of results in PMC12114619, “Nifuroxazide and 4-Hydroxybenzhydrazone Derivatives as New Antiparasitic (Trypanosoma cruzi and Leishmania mexicana) and Anti-Mycobacterium tuberculosis Agents” (Pharmaceutics, 2025).

≈ marks a conversion by molar mass, not a printed value. Bounds are passed on as bounds.

Data set [1] deals with intracellular amastigotes of the L. donovani 9515 strain. Also noted: method as in PMID 35732232. To be noted: read-out: IC50 against intracellular amastigotes of L. donovani 9515; cited from earlier work.
Data set [2] concerns amastigotes of the L. major IR-173 strain. Set-up: method as in PMID 35732232. To be noted: read-out: IC50 against amastigotes of L. major IR-173; cited from earlier work.
The subject of data set [3] is J774.2 mouse macrophage cells. In words: Cytotoxicity on macrophages (MTT). The format is cell-based.
Experimental: (§2) Cytotoxicity was assessed on J774.2 mouse macrophage cells (ATCC® TIB-67, ATCC, Manassas, VA, USA). Cells were cultured in RPMI medium supplemented with 10% SFB, 100 U µg/mL penicillin-100 mg/mL streptomycin, and glutamine (2 mM) at 37 °C and in a 5% CO2 atmosphere. A known concentration of cells (1 × 10^6/mL) was incubated with the compounds at different concentrations (0.78 to 200 µM) for 48 h at 37 °C in a CO2 atmosphere (5%). Wells containing cells treated with 0.2% DMSO were used as a negative control. MTT was employed to evaluate the metabolic activity. Next, the cell viability was calculated (%), and the cytotoxic concentration (CC50) was determined with probit analysis. All samples were evaluated in triplicate in three independent experiments.
The test system of data set [4] is L. mexicana MNYC/BZ/62/M379 promastigotes. In words: Leishmanicidal activity, L. mexicana promastigotes, M379 strain (MTT). The format is cell-based, Leishmania mexicana. To be noted: 48 h. The protocol: (§1) For leishmanicidal assays, the reference strain (MNYC/BZ/62/M379) and the isolate (MHOM/MX/2017/UABJO17FCQEPS) of L. mexicana were used. Promastigotes were cultured in RPMI 1640 medium supplemented with 10% FBS, 100 U/mL penicillin-100 […] streptomycin, and glutamine (2 mM). 100 µL parasites (5 × 10^5/mL) were added in a 96-well plate, and 100 µL of appropriate concentrations (0.78 to 200 µM) of each sample dissolved in DMSO and incubated for 48 h at 26 °C. Wells containing promastigotes with DMSO 0.2% were used as a negative control, and the reference drug glucantime was included as the positive control. The 3-(4,5-Dimethylthiazol-2-yl)-2,5-diphenyltetrazolium bromide (MTT) was used to measure metabolic activity. The IC50 values were calculated with the probit statistical tool. All samples were evaluated in triplicate in three independent experiments.

The test system of data set [5] is L. mexicana MHOM/MX/2017/UABJO17FCQEPS promastigotes. In words: Leishmanicidal activity, L. mexicana promastigotes, FCQEPS isolate (MTT). Format: cell-based, Leishmania mexicana. To be noted: FCQEPS strain, 48 h. Here is the method: as §1
Data set [6] relates to T. cruzi strain A1 epimastigotes. In words: Trypanocidal activity, T. cruzi epimastigotes, A1 strain (resazurin). Format: cell-based, Trypanosoma cruzi. To be noted: Trypanosoma cruzi, 48 h.
Data set [7] relates to T. cruzi NINOA (MHOM/MX/1994/NINOA) strain epimastigotes. The experiment in a line: Trypanocidal activity, T. cruzi epimastigotes, NINOA strain (resazurin). To be noted: 48 h. Format: cell-based, Trypanosoma cruzi.
The nature of data set [8]: Cytotoxicity on macrophages (MTT). The format is cell-based, mouse. To be noted: mouse, Cytotoxicity (CC50) Macrophages J774.2.
Experimental: as §2
For data set [9], the system named is M. tuberculosis H37Rv (ATCC 27294). In words: Anti-Mycobacterium activity, microplate Alamar Blue Assay (MABA). The format is cell-based, Mycobacterium tuberculosis. To be noted: Mycobacterium tuberculosis, H37Rv strain, minimum concentration achieving 90% inhibition. Here is the method:
The reference strain H37Rv (ATCC 27294) of M. tuberculosis was utilized to assess anti-M. tuberculosis activity using the microplate Alamar Blue Assay (MABA), as previously reported. Samples underwent evaluation in triplicate independent experiments. Isoniazid, rifampicin, moxifloxacin, and linezolid were included as reference drugs, and the minimum drug concentration that achieved 90% inhibition was recorded as the minimum inhibitory concentration (MIC).

The IC50 is the concentration that inhibits the measured activity by half. Turning to `O=C(N/N=C/c1ccc([N+](=O)[O-])o1)c1ccc(OS(=O)(=O)c2cccnc2)cc1` [Compound 1l], the figures for the IC50 in data set [1] and in data set [2] were 3.26 µM and 1.26 µM, respectively.
Regarding `CC(C)(C)c1ccc(COc2ccc(C(=O)N/N=C/c3ccc([N+](=O)[O-])o3)cc2)cc1` [Compound 2d], the IC50 in [2] was 0.19 µM.
Usually CC50 stands for the concentration that lowers cell viability or growth by half. A high value points to better tolerance by the cells. As for `CNC[C@H](O)[C@@H](O)[C@H](O)[C@H](O)CO.[O]=[Sb](=[O])[OH]` [Glucantime, reference compound], the CC50 in [3] (J774.2 macrophages, 48 h, MTT) is over 200 µM. In addition, the IC50 in [4] was 134 ± 3.1 µM; in [4] (listed as glucantime) it was 134 µM; in data set [5] it was 125 ± 1.6 µM; in data set [5] (listed as glucantime), over 120 µM.
By MIC is commonly meant the lowest concentration found to suppress growth. High values mean weaker potency, low ones greater potency. Regarding `O=C(N/N=C/c1ccc([N+](=O)[O-])cc1)c1ccc(O)cc1` [Nfz-18], the IC50 in [6] was over 100 µM; in data set [7] it was 44.6 ± 6.3 µM; in data set [7] (Trypanosoma cruzi), 44.5 µM; in data set [4], over 200 µM; in data set [4] (Leishmania mexicana), over 100 µM; in [5] (Leishmania mexicana), 57.8 ± 2.6 µM. Also, the “Cytotoxicity (CC50) Macrophages J774.2” value in [3] was “most toxic”. The compound further registered a CC50 at 48 h in data set [8] of 2.45 ± 2.9 µM. This compound also came in with an MIC in data set [9] of 186 µg/mL (≈ 653 µM).
